This assay concerns Tg2576 AD mice. Put plainly: Hippocampal neuronal cell bodies by direct binding assay with [125I]-labeled anti-NeuN antibody, Tg2576 mice subjected to CUMS. Type of assay: in vivo, mouse. To be noted: 15-month-old Tg2576 mice, 3 months of CUMS with treatment, vs untreated stressed controls. The source says: For a genetic model of familial AD (FAD), Tg2576 mice (Taconic Biosciences, Rensselaer, N.Y., USA) were used with neuron-specific overexpression of human APPSwe, i.e the Swedish mutation of APP695 isolated from a Swedish family with FAD featuring the double mutation K670N/M671L (Hsiao et al., Science 274, 99-103 (1996)). As a genetic model of tauopathy, the Tg-TauP301L mice (Model 2508, Taconic Biosciences, Rensselaer, N.Y., USA) with neuron-specific expression of the most common FTDP-17 (frontotemporal dementia and parkinsonism linked to chromosome 17) mutation (Lewis et al., Nature Genetics 25, 402-405 (2000)) were used. […]
Neuronal cell loss and hyperphosphorylated PHF Tau were determined in hippocampi of 15 months-old Tg2576 mice, which were treated without or with Compound-1 and Compound-4 for three months during the neurodegeneration-enhancing CUMS (chronic unpredictable mild stress) protocol. Neuronal cell loss was determined with crude homogenates of dissected hippocampi by direct binding assay with the neuron-specific [125]-labeled anti-NeuN antibody (MAB377, clone A60, EMD Millipore, Merck KGaA, Darmstadt, Germany). Similarly, the neuronal cell loss-causing PHF tau hyperphosphorylation was quantified with [125]-labeled AT8 antibody. […]

Entries after “also recorded” stand apart in the source; their conditions may differ.

Consider `O=C(C1=C(O)C(c2ccccc2)N(c2ccc3c(c2)OCO3)C1=O)C1CC1` (centres unmarked) [Compound-1, 1-(1,3-benzodioxol-5-yl)-4-(cyclopropane-carbonyl)-3-hydroxy-2-phenyl-2H-pyrrol-5-one], for which the “hippocampal neuronal loss (anti-NeuN antibody binding)” value is “retarded hippocampal neuronal loss; also recorded: significantly retarded the loss of hippocampal neurons”.
The value for `O=C(C1=C(O)C(c2ccc(F)cc2)N(c2ccc3c(c2)OCO3)C1=O)C1CC1` (centres unmarked) [Compound-1F, 1-(1,3-Benzodioxol-5-yl)-4-(cyclopropanecarbonyl)-2-(4-fluorophenyl)-3-hydroxy-2H-pyrrol-5-one] was “retarded hippocampal neuronal loss”.

These data come from US20210015793A1, “COMPOUNDS FOR TREATING CNS- AND NEURODEGENERATIVE DISEASES” (ETH ZURICH, priority 2018, published 2021).
